As usually defined, the IC50 is the concentration needed to halve the response being measured.

Data on one molecule can be found in patent EP4717275A1, “ANTI-LUNG CANCER COMBINED DRUG AND USE THEREOF” (Gunagdong Yinzhu Pharmaceutical Technology Co., Ltd, priority 2023, dated 2024).

Series [1] is classed as in vivo. The conditions noted are these: dead/total animals at Day 21; NCI-H1975 study; PO, QD×21. The method, then:
(§1) BALB/c Nude mice, female, 8-10 weeks old, 18-20g. The variation of the body weight is ±20% around average body weight. 80 mice were inoculated and 60 mice were grouped.
(§2) The grouping day was designated as Day 0, and administration commenced according to animal body weight.
Animal body weight and tumor volume were measured twice weekly throughout the experiment. Tumor length and width were measured using a digital caliper, with tumor volume estimated from these measurements.
Clinical observations were recorded daily to assess overall health status, weight abnormalities, behavioral changes, and other treatment-related adverse reactions.
In accordance with animal welfare regulations, animals meeting any of the following criteria during the study were removed from the experimental group and euthanized: 1. Body weight loss exceeding 20% compared to Day 0 (BWL ≥ 20%); 2. Severe adverse reactions such as blindness or paralysis; 3. Tumor volume exceeding 2000 mm^3; 4.
The animal body weight change rate (%BWC) is calculated as: (BWt - BW0) / BW0 × 100%, where BWt is the animal body weight at each measurement and BW0 is the animal body weight at grouping.
According to China's NMPA Technical Guidance Principles for Non-clinical Studies of Cytotoxic Antineoplastic Drugs (November 2006), %T/CRTV ≤ 40% and statistically significant P < 0.05 indicate efficacy. Drug-related animal mortality exceeding 20% indicates severe toxicity at that dose.
All experimental data in this study are expressed as Mean ± SEM.

Series [2] can be described thus: Animal body weight, fatality and toxicity observation in the NCI-H2228 xenograft study. The class given is in vivo, BALB/c Nude mice. The conditions noted are these: dead/total animals at Day 21; NCI-H2228 study; PO, QD×21.
Description: as §1, §2
(§3) The same as the therapeutic effect evaluation experiments for Examples 1-2 and Comparative Examples 1-3.

The next series has as its system NCI-H2228 cell. The experiment in a line: CCK8 proliferation assay with combination index analysis. The class given is cell-based, human. The following applies: CAI alone. As for the experimental part:
CCK8 method was used to evaluate the effect of the drugs towards proliferation of lung cancer cell line (NCI-H2228 cell). The cellular viability with different concentration of drug was assayed and the 50% inhibitory concentration was calculated.
Emerge NCI-H2228 cells (purchased from American Type Culture Collection (ATCC, Manassas, VA, USA)) from liquid nitrogen and thaw in a 37°C water bath. After thawing, culture cells in 1640 medium.
When cell density reached 90% confluence in culture medium, cells were digested with 0.25% trypsin and resuspended. After cell growth stabilized, cells in the logarithmic growth phase were harvested and counted using a cell counter and it was ensured that viability exceeded 85% for all cell lines.
Adjust cell concentration by diluting with culture medium. Add 100 µL of cell suspension to a 96-well plate to achieve a density of 3000 cells/well. Add 100 µL of PBS buffer to the wells around the cell-seeded wells.
Incubate the 96-well plate at 37°C, 5% CO2, and 95% humidity overnight.
Remove the cell culture plate from the incubator, aspirate the culture medium, and add the prepared drug-containing medium. Incubate at 37°C, 5% CO2, and 95% humidity for 72 hours.
Add 10 µL of CCK-8 solution to each well of the 96-well plate. Incubate the plate in the cell culture incubator for 1.5 hours. Measure the absorbance at 450 nm using a microplate reader.
Analyze data using GraphPad Prism 5.0 software. Fit the data using nonlinear S-curve regression to generate a dose-response curve and calculate the IC50 value. [formula]
The analysis of the combination index of the compound was performed using the median effect principle. The formula for the combination index of two compounds is: CI = (D)1/(Dx)1 + (D)2/(Dx)2 [formula]
Where: • (D)1---- The concentration of Compound 1 when compound 1 was used with another compound and the effect X was generated; • (D)2---- The concentration of Compound 2 when compound 2 was used with another compound and the effect X was generated; • (Dx)1---- The concentration of Compound 1 when compound 1 was used alone and the effect X was generated; • (Dx)2---- The concentration of Compound 2 when compound 2 was used alone and the effect X was generated.
The CI value enables quantitative assessment of the nature and strength of interactions between different compounds (Table 2). Interaction strength is measured using the weighted average CI (CIwt), calculated by the formula: CIwt = (CI50+2CI75+3CI90+4CI95)/10 [formula]
Where: • CI50 ---- CI value at EC50 (concentration achieving 50% effect) • CI75, CI90, and CI95 follow the same principle, representing the CI values at EC75, EC90, and EC95, respectively.
Evaluation of the combination effect: CI value is used to evaluate the combination effect, and the judgment method is shown in Table 7. Table 7 Judgment criteria of the results
A general note: Tetrazolium dyes change colour on reduction, which living cells bring about.

For series [3], the system named is human lung cancer NCI-H2228 xenografts. The series is described as follows: Therapeutic effect in vivo on NCI-H2228 xenografts in nude mice. On the set-up: species or system BALB/c Nude mice. The following applies: PO; for Relative tumor proliferation rate(%) Day 21: %T/CRTV; for Tumor growth inhibition rate(%) Day 21: %TGITV from tumor volume vs control; for Tumor growth inhibition rate(%) Day 21 / Tumor volume (mm^3,Mean±SEM) Day 21 / Relative tumor volume Day 21: QD× 21; for Tumor inhibition rate(%) Day 21: %TGITW from tumor weight vs control; for Tumor volume (mm^3,Mean±SEM) Day 21: QD×21, dose per group; for Relative tumor volume Day 21: RTV = Vt/V0, Mean ± SEM. As for the experimental part: as §1
Table 9 Experimental design of therapeutic effect of the drugs in vivo
NCI-H2228 cells were cultured in RPMI 1640 medium supplemented with 10% FBS and maintained in a 37°C, 5% CO2 humidified incubator.
Log-phase NCI-H2228 cells were harvested, resuspended in RPMI 1640 basal medium containing 50% Matrigel, and adjusted to a concentration of 2 × 10^7 cells/mL. Under aseptic conditions, 0.1 mL of the cell suspension was injected subcutaneously into the right flank of mice at a concentration of 2 × 10^6 cells/0.1 mL/mouse.
When the mean tumor volume reached approximately 150 mm^3, animals were randomly grouped based on tumor volume, ensuring inter-group tumor volume variation was less than 10% of the mean.
as §2, §3

The subject of the next series is mouse melanoma. The conditions noted are these: transplanted tumors, dexamethasone by intraperitoneal injection; cited from earlier work.
Setting [4] is: QD×21, listed as Comparative Example 5.
The mark [5] stands for this setting: QD×21, listed as Comparative Example 6.
The mark [6] stands for this setting: QD×21, listed as Comparative Example 5, CAI, 20mg /kg.
The mark [7] stands for this setting: QD×21, listed as Comparative Example 6, CAI, 40mg /kg.

Each structure is given as a SMILES string. Where “and” joins values, the source holds several entries; their conditions need not be identical. Identical values can stand only once. Like-named read-outs stand apart in the source and are kept apart here. Marks after values point to notes of the source that are not given here.

Turning to `NC(=O)c1nnn(Cc2cc(Cl)c(C(=O)c3ccc(Cl)cc3)c(Cl)c2)c1N` [CAI, 5-Amino-1-[3,5-dichloro-4-(4-chlorobenzoyl chloride)benzyl]-1H-1,2,3-triazole-4-benzamide], the Fatality in series [1] and in series [2] was 0/10 (Day 21) throughout. Further, the IC50 with NCI-H2228 cell (single plates 1-3, 72 hours, read-out: IC50 (CAI)) was 22.9 µM and 23 µM; in the series with NCI-H2228 cell (Homo sapiens, NCI-H2228, 72 h, average of 3 plates, read-out: IC50 (CAI)) it was 22.8 µM; with NCI-H2228 cell (Homo sapiens, NCI-H2228, 72 h, single plates 1-3, read-out: IC50 (CAI)) it was 22.4 µM. Moreover, the “Relative tumor proliferation rate(%) Day 21” value worked out at 69.94% in series [3] (setting [4]) and 68.46% in series [3] (setting [5]). Also, the “Tumor growth inhibition rate(%) Day 21” value in series [3] (setting [6]) came to 33.39%; in series [3] (setting [7]) it was 34.01%. Moreover, the “Tumor inhibition rate(%) Day 21” value in series [3] (setting [4]) is on record as 39.40%; in series [3] (setting [5]), 42.96%. The “Tumor volume (mm^3,Mean±SEM) Day 21” value in series [3] (listed as Comparative Example 5, CAI, 20mg /kg) was 979.25± 64.93* mm^3; in series [3] (listed as Comparative Example 6, CAI, 40mg /kg), 970.11± 102.46* mm^3. In addition, the entries for the “Tumor weight (g,Mean±SEM) Day 21” value in series [3] (setting [4]) and in series [3] (setting [5]) were 0.529 ± 0.055 g and 0.498 ± 0.059 g, respectively. The figures for the “Relative tumor volume Day 21” value in series [3] (setting [6]) and in series [3] (setting [7]) were 6.12±0.29 and 5.99±0.48, respectively. In addition, in the series with mouse melanoma, the inhibition rate was 39.8%.
